# Assay results reported in patent US20260248799A1, “COMBINATIONS OF RETINALDEHYDE DEHYDROGENASE 1 (RALDH1) INHIBITORS AND IMMUNOSTIMULATORS AND METHODS USING SAME” (The Trustees of the University of Pennsylvania, priority 2023, published 2026).
# Legend:
# [1] = Pharmacokinetics IV and PO in CD-1 mice, plasma; assay type: in vivo; conditions: mouse plasma
# Source text: The PK studies were done at NIH or a commercial CRO—Pharmacon using their in-house standard protocol. […] For C99, IV and PO, performed at NIH using CD-1 mice; formulation: 20% HPbCD in saline.
# [2] = test system: macrophages from primary human monocytes; assay: Numbers of live monocyte-derived macrophages in vitro; assay type: cell-based; conditions: C86 treated TCM or BMS493; three days
# Protocol: FIGS. 24A-24E: Raldh1-INH blocks tumor supportive functions of monocytes and macrophages. FIG. 24A: Circulating primary human monocytes were collected from donors and cultured with MCSF (50 ng/mL) to generate macrophages. On day 3 of these cultures, DMSO or RA (100 nmol/L) was added to generate control monocyte-derived macrophages (Control-MoDM) or RA monocyte-derived macrophages (RA-MoDM), respectively. On day 7 of these cultures, macrophages were collected for each well after washing with 1×PBS, mixed with Huh7 cells at approximately 50:50 ratio, and the mix injected into the flanks of NU/J mice. Huh7 tumors cells that were not mixed with any macrophages before flank injection served as an additional control. Tumor volume was measured every 2 days (left graph). 19 days after tumor injection, mice were sacrificed and tumor weight (right graph) was measured. […] Three or more independent experiments were performed with at least three replicates per experimental group. Unpaired t test, two-tailed. […] Tumor growth was monitored daily (left graph). 13 days after tumor cell transplantation, mice were sacrificed and tumor weight measured (right graph). […] Three days later, cells were harvested, counted, and stained with PI for FCS analyses. […] Cell proliferation was measured by counting live cell numbers (y-axis). […] 72 hours later, the cells were washed, counted, and analyzed by FCS. […]
# [3] = test system: ATPase, Na+/K+, Heart, Pig; assay: Safetyscreen: ATPase, Na+/K+; assay type: biochemical; conditions: 10 μM
# [4] = target: T1, Monoamine Oxidase MAO-A (Homo sapiens, UniProt P21397); assay: Safetyscreen: MAO-A; assay type: biochemical; conditions: read-out: % Inh. Monoamine Oxidase MAO-A
# T1 construct: Eurofins Cerep Panlabs (contract panel)
# [5] = target: T2, Adrenergic α2A (Homo sapiens, UniProt P08913); assay: Safetyscreen: Adrenergic α2A; assay type: binding; conditions: read-out: % Inh. Adrenergic α2A
# T2 construct: Eurofins Cerep Panlabs (contract panel)
# T2 sequence (P08913 whole entry): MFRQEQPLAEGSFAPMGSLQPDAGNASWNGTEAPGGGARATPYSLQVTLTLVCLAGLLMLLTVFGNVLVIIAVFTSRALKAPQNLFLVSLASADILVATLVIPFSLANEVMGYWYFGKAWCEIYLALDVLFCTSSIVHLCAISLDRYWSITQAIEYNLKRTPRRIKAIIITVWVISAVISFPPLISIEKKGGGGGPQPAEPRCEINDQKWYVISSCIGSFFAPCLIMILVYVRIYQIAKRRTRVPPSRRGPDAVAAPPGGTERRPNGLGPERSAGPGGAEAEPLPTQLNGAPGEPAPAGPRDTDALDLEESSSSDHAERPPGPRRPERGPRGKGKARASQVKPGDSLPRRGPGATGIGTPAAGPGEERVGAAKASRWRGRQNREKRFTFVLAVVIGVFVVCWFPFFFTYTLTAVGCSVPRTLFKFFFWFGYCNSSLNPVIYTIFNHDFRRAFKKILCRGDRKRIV
# [6] = target: T3, Androgen (Testosterone) (Homo sapiens, UniProt P10275); assay: Safetyscreen: Androgen; assay type: binding; conditions: read-out: % Inh. Androgen (Testosterone)
# T3 construct: Eurofins Cerep Panlabs (contract panel)
# T3 sequence (P10275 whole entry): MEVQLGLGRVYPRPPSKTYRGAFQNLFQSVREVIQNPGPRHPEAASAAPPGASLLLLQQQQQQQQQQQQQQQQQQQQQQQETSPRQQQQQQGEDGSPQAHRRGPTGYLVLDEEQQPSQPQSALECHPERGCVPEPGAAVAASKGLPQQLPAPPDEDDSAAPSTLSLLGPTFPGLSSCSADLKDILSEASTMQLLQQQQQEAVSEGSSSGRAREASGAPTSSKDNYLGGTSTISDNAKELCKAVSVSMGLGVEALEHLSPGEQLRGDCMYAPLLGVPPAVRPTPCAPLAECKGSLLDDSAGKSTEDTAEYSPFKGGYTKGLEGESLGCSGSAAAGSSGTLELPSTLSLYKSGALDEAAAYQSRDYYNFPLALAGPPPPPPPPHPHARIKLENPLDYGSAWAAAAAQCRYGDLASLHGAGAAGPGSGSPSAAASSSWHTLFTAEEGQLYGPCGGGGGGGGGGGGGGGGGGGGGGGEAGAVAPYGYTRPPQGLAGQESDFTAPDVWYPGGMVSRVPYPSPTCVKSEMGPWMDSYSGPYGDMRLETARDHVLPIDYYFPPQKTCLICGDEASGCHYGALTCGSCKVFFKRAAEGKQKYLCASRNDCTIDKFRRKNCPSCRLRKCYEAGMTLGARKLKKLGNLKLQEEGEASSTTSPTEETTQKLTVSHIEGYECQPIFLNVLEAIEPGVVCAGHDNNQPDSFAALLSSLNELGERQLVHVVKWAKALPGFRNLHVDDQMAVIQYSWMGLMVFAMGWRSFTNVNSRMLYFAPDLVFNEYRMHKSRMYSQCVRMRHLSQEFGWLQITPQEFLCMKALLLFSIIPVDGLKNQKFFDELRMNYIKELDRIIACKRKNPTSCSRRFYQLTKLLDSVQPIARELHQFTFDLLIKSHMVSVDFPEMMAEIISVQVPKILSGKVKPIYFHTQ
# [7] = target: T4, Angiotensin AT1 (Homo sapiens, UniProt P30556); assay: Safetyscreen: Angiotensin AT1; assay type: binding; conditions: read-out: % Inh. Angiotensin AT1
# T4 construct: purchased Eurofins Cereps Panlabs
# T4 sequence (P30556 whole entry): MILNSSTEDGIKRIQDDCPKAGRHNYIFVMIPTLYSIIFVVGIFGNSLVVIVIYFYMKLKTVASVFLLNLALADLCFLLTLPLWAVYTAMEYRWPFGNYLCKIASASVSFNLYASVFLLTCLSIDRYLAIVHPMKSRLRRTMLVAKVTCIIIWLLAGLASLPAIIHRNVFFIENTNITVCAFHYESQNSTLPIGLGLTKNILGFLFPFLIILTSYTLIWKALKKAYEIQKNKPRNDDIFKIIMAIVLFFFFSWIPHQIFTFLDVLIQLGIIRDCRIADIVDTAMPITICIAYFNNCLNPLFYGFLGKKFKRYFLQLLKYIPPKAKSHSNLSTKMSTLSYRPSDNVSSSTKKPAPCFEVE
# [8] = target: T5, Calcium Channel N-Type (Rattus norvegicus, UniProt Q02294); assay: Safetyscreen: Ca channel N-type; assay type: binding; conditions: read-out: % Inh. Calcium Channel N-Type
# T5 construct: purchased Eurofins Cereps Panlabs
# [9] = target: T6, Cannabinoid CB2 (Homo sapiens, UniProt P34972); assay: Safetyscreen: CB2; assay type: binding; conditions: read-out: % Inh. Cannabinoid CB2
# T6 construct: purchased Eurofins Cereps Panlabs
# T6 sequence (P34972 whole entry): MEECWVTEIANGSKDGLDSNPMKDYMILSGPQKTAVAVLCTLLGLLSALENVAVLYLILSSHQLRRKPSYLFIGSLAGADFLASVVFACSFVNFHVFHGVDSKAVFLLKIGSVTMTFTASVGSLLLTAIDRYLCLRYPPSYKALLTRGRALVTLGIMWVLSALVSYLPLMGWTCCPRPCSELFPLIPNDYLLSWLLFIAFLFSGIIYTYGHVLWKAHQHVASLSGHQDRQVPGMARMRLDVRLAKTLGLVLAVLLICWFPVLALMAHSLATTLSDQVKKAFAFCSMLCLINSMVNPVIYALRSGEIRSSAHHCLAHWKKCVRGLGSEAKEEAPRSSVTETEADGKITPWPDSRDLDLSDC
# [10] = target: T7, Chemokine CXCR2 (IL-8RB) (Homo sapiens, UniProt P25025); assay: Safetyscreen: CXCR2; assay type: binding; conditions: read-out: % Inh. Chemokine CXCR2 (IL-8RB)
# T7 construct: purchased Eurofins Cereps Panlabs
# T7 sequence (P25025 whole entry): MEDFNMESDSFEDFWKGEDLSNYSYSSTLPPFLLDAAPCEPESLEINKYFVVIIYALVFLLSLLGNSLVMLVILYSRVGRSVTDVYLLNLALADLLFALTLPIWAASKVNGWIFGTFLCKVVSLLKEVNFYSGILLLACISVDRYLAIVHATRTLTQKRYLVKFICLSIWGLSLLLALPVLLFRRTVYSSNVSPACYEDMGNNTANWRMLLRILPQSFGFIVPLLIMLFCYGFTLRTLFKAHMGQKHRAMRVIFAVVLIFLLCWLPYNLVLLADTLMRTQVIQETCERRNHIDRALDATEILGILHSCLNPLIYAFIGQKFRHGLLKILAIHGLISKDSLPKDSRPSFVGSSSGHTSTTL
# [11] = target: T8, Glutamate, Metabotropic, mGlu5 (Homo sapiens, UniProt P41594); assay: Safetyscreen: mGlu5; assay type: binding; conditions: read-out: % Inh. Glutamate, Metabotropic, mGlu5
# T8 construct: purchased Eurofins Cereps Panlabs
# [12] = target: T9, Histamine H1 (Homo sapiens, UniProt P35367); assay: Safetyscreen: Histamine H1; assay type: binding; conditions: read-out: % Inh. Histamine H1
# T9 construct: purchased Eurofins Cereps Panlabs
# T9 sequence (P35367 whole entry): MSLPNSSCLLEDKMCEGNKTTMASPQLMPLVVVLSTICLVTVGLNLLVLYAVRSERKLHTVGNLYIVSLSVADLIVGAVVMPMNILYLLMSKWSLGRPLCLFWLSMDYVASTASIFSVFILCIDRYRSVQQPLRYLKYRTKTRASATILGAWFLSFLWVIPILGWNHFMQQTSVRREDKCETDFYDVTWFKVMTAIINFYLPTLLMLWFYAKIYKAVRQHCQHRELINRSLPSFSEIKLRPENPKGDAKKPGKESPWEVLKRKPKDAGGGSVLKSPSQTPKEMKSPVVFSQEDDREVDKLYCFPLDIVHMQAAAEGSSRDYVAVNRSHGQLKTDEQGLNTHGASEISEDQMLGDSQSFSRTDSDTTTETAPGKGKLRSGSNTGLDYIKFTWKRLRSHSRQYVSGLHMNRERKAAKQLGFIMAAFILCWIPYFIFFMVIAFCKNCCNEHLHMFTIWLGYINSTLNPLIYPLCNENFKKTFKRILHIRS
# [13] = target: T10, Muscarinic M2 (Homo sapiens, UniProt P08172); assay: Safetyscreen: Muscarinic M2; assay type: binding; conditions: read-out: % Inh. Muscarinic M2
# T10 construct: Eurofins Cereps Panlabs (contract panel)
# T10 sequence (P08172 whole entry): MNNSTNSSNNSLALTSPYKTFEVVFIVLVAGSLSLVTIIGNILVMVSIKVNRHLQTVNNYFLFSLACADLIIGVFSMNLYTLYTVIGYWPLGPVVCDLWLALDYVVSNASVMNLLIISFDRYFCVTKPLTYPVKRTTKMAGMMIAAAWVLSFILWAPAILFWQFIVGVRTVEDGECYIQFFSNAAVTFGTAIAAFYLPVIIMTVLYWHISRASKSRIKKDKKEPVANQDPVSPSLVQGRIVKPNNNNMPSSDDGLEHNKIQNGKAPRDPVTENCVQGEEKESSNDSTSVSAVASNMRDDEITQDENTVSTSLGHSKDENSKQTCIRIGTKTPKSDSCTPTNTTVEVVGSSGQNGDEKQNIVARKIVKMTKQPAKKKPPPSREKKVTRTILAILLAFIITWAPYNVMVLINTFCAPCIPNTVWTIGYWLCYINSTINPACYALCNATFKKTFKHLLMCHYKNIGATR
# [14] = target: T11, Muscarinic M3 (Homo sapiens, UniProt P20309); assay: Safetyscreen: Muscarinic M3; assay type: binding; conditions: read-out: % Inh. Muscarinic M3
# T11 construct: Eurofins Cereps Panlabs (contract panel)
# T11 sequence (P20309 whole entry): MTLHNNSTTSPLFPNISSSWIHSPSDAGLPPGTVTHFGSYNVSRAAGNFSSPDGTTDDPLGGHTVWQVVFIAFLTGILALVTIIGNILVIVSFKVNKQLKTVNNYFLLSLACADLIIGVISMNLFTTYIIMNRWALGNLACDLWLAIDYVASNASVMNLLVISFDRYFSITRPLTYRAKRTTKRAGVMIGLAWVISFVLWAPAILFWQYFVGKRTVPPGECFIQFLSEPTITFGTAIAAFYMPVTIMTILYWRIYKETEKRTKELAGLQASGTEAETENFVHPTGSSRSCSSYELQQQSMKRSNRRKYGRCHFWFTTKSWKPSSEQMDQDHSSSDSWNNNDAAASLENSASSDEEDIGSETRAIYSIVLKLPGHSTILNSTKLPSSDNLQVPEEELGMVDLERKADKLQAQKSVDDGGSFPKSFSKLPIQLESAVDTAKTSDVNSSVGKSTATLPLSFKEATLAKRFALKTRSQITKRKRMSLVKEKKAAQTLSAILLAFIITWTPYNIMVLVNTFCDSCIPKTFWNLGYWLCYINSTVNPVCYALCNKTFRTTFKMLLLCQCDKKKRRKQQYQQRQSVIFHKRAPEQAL
# [15] = target: T12, Muscarinic M4 (Homo sapiens, UniProt P08173); assay: Safetyscreen: Muscarinic M4; assay type: binding; conditions: read-out: % Inh. Muscarinic M4
# T12 construct: Eurofins Cereps Panlabs (contract panel)
# [16] = target: T13, Opiate δ1 (OP1, DOP) (Homo sapiens, UniProt P41143); assay: Safetyscreen: Opiate δ1; assay type: binding; conditions: read-out: % Inh. Opiate δ1 (OP1, DOP)
# T13 construct: Eurofins Cereps Panlabs (contract panel)
# T13 sequence (P41143 whole entry): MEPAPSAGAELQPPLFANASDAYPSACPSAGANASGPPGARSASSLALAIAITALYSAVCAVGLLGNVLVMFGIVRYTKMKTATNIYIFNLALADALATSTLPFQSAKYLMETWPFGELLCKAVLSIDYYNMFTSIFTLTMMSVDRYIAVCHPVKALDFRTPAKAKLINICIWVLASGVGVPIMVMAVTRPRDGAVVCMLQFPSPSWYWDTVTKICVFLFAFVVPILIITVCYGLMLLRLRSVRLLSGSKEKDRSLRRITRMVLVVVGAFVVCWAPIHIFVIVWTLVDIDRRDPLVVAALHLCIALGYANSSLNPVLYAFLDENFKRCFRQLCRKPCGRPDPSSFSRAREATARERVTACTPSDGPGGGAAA
# [17] = test system: Sodium Channel, Site 2; assay: Safetyscreen: Sodium Channel, Site 2; assay type: binding, rat; conditions: 10 μM
# [18] = target: T14, Vasopressin V1A (Homo sapiens, UniProt P37288); assay: Safetyscreen: Vasopressin V1A; assay type: binding; conditions: read-out: % Inh. Vasopressin V1A
# T14 construct: purchased Eurofins Cereps Panlabs
# T14 sequence (P37288 whole entry): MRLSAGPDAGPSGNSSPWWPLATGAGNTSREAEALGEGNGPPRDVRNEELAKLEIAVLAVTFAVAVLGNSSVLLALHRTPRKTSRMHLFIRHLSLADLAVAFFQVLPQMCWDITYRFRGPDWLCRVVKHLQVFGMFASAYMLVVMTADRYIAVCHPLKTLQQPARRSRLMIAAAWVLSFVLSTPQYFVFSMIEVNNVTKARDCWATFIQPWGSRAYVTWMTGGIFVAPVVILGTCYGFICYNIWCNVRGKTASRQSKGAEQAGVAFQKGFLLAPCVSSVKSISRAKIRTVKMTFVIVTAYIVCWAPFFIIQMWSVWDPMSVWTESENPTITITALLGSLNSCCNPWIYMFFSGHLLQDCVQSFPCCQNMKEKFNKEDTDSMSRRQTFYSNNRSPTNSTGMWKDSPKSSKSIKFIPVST
# [19] = intravenous administration, 2 mg/kg
compound,measurement,setting,value
"CS(=O)(=O)N1CCN(C(=O)c2cnc3ccc(F)cc3c2N2CCC(C#N)(c3ccccc3)CC2)CC1 [Compound C-86, 1-(6-fluoro-3-(4-(methylsulfonyl)piperazine-1-carbonyl)quinolin-4-yl)-4-phenylpiperidine-4-carbonitrile]",AUC0-∞,[1]; [19],1141 ng·h/mL
same,Cmax,[1]; [19],2350 ng/mL
same,Vss,[1]; [19],0.7 L/kg
same,AUC0-∞,"[1]; oral administration, 10 mg/kg",2518 ng·h/mL
same,Cmax,"[1]; oral administration, 10 mg/kg",1234 ng/mL
same,F,"[1]; oral administration, 10 mg/kg",44%
same,RA and tumor-CM induced increase in macrophage numbers,[2],reversed
same,"% Inh. ATPase, Na+/K+, Heart, Pig",[3],2%
same,inhibition at 10 µM,[4],2%
same,inhibition at 10 µM,[5],0%
same,inhibition at 10 µM,[6],16%
same,inhibition at 10 µM,[7],19%
same,inhibition at 10 µM,[8],6%
same,inhibition at 10 µM,[9],21%
same,inhibition at 10 µM,[10],8%
same,inhibition at 10 µM,[11],16%
same,inhibition at 10 µM,[12],13%
same,inhibition at 10 µM,[13],4%
same,inhibition at 10 µM,[14],5%
same,inhibition at 10 µM,[15],13%
same,inhibition at 10 µM,[16],2%
same,"% Inh. Sodium Channel, Site 2",[17],21%
same,inhibition at 10 µM,[18],-13%
